Reference: PubChem BioAssay AID330 (DTP/NCI, 2004)
Where “and” joins values, the source holds several entries; their conditions need not be identical. Equal entries are not always repeated. Toxic doses and inconclusive results are not listed.

Tested on: P388 leukemia ip, CD2F1 mice, survival T/C
Assay: NCI In Vivo Anticancer Drug Screen. Data for tumor model P388 Leukemia (intraperitoneal) in CD2F1 (CDF1) mice
Settings: endpoint: median survival time, higher = longer survival
Method in brief: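 Mice carrying the transplanted tumor received test compound or vehicle. Survival was recorded in each group, and the value is the treated-group measurement divided by that of the vehicle-treated control group.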

[1] = dose: 4.0 mg/kg/injection, schedule: Q01DX009 (ip), vehicle: Klucel (hydroxypropylcellulose) (HPC)
[2] = dose: 8.0 mg/kg/injection, schedule: Q01DX009 (ip), vehicle: Klucel (hydroxypropylcellulose) (HPC)
[3] = dose: 100.0 mg/kg/injection, schedule: Q01DX001 (ip), vehicle: Klucel (hydroxypropylcellulose) (HPC)
[4] = dose: 200.0 mg/kg/injection, schedule: Q01DX001 (ip), vehicle: Klucel (hydroxypropylcellulose) (HPC)
[5] = dose: 400.0 mg/kg/injection, schedule: Q01DX001 (ip), vehicle: Klucel (hydroxypropylcellulose) (HPC)
[6] = dose: 100.0 mg/kg/injection, schedule: Q01DX001 (ip), vehicle: saline with Tween-80
[7] = dose: 200.0 mg/kg/injection, schedule: Q01DX001 (ip), vehicle: saline with Tween-80
[8] = dose: 50.0 mg/kg/injection, schedule: Q01DX009 (ip), vehicle: saline with Tween-80
[9] = dose: 100.0 mg/kg/injection, schedule: Q01DX009 (ip), vehicle: saline with Tween-80
[10] = dose: 200.0 mg/kg/injection, schedule: Q01DX009 (ip), vehicle: saline with Tween-80
[11] = dose: 400.0 mg/kg/injection, schedule: Q01DX009 (ip), vehicle: saline with Tween-80
[12] = dose: 100.0 mg/kg/injection, schedule: Q04DX003 (ip), vehicle: saline with Tween-80
[13] = dose: 200.0 mg/kg/injection, schedule: Q04DX003 (ip), vehicle: saline with Tween-80

With `Nc1n[n+](-c2ccc3ccccc3c2)no1` the T/C (dose: 3.13 mg/kg/injection, schedule: Q01DX009 (ip), vehicle: water) was 98 % of control, the T/C (dose: 6.25 mg/kg/injection, schedule: Q01DX009 (ip), vehicle: water) was 109 % of control and the T/C (dose: 12.5 mg/kg/injection, schedule: Q01DX009 (ip), vehicle: water) was 120 % of control. The T/C (dose: 25.0 mg/kg/injection, schedule: Q01DX009 (ip), vehicle: water) was 120 % of control.

In the case of `C=C(CN(C)C)C(=O)c1cc(C)ccc1C`, the T/C (dose: 0.93 mg/kg/injection, schedule: Q01DX005 (ip), vehicle: saline) is reported as 100 % of control, the T/C (dose: 1.87 mg/kg/injection, schedule: Q01DX005 (ip), vehicle: saline) is reported as 100 % of control and the T/C (dose: 3.75 mg/kg/injection, schedule: Q01DX005 (ip), vehicle: saline) is reported as 98 % of control.

For `Nc1ncnc2c1ncn2C1C=C(CO)C(O)C1O` (stereo not given), the T/C (dose: 1.0 mg/kg/injection, schedule: Q01DX009 (ip), vehicle: saline) was 163 % of control, the T/C (dose: 2.0 mg/kg/injection, schedule: Q01DX009 (ip), vehicle: saline) was 163 % of control and the T/C [1] was 161 % of control. The T/C (dose: 4.0 mg/kg/injection, schedule: Q01DX009 (ip), vehicle: saline) was 156 % of control, the T/C [2] was 153 % of control and 161 % of control and the T/C (dose: 8.0 mg/kg/injection, schedule: Q01DX009 (ip), vehicle: saline) was 152 % of control and 182 % of control.

In the case of `CC(=O)Nc1cccc2c(C)cc(=O)[nH]c12`, the T/C [3] is reported as 91 % of control, the T/C [4] is reported as 97 % of control and the T/C [5] is reported as 98 % of control.

`O=C(COc1cc(Cl)c(Cl)cc1Cl)OCCOc1cc(Cl)c(Cl)cc1Cl` was tested, and the T/C (dose: 1.0 mg/kg/injection, schedule: Q01DX009 (ip), vehicle: saline with Tween-80) was 100 % of control, the T/C (dose: 2.0 mg/kg/injection, schedule: Q01DX009 (ip), vehicle: saline with Tween-80) was 100 % of control and the T/C (dose: 4.0 mg/kg/injection, schedule: Q01DX009 (ip), vehicle: saline with Tween-80) was 95 % of control.

In the case of `Clc1ccc(/C=C/c2ccccn2)cc1`, the T/C (dose: 50.0 mg/kg/injection, schedule: Q01DX005 (ip), vehicle: saline with Tween-80) is reported as 91 % of control, the T/C (dose: 100.0 mg/kg/injection, schedule: Q01DX005 (ip), vehicle: saline with Tween-80) is reported as 90 % of control and the T/C (dose: 200.0 mg/kg/injection, schedule: Q01DX005 (ip), vehicle: saline with Tween-80) is reported as 91 % of control.

For `CC(=O)Oc1cc2oc([O-])c[n+]2c2ccccc12`, the T/C (dose: 50.0 mg/kg/injection, schedule: Q01DX001 (ip), vehicle: saline with Tween-80) was 106 % of control, the T/C (dose: 60.0 mg/kg/injection, schedule: Q01DX005 (ip), vehicle: Klucel + Tween-80) was 124 % of control and the T/C [6] was 113 % of control and 124 % of control. The T/C [7] was 106 % of control and 121 % of control.

`COc1cccc2c1OC1(N3CCOCC3)CCCCC1C2C[N+](=O)[O-]` (stereo not given) was tested, and the T/C [8] was 90 % of control, the T/C [9] was 93 % of control and the T/C [10] was 89 % of control.

With `CCCC1CC2=C(C(=O)c3c(OC)cccc3C2=O)C(O)(C(F)(F)F)O1` (stereo not given) the T/C [3] was 103 % of control, the T/C [4] was 109 % of control and the T/C [5] was 94 % of control.

For `CC1(C)CC(OP(=[Se])(OC2CC(C)(C)N(O)C(C)(C)C2)N2CC2)CC(C)(C)N1O`, the T/C (dose: 12.5 mg/kg/injection, schedule: Q01DX001 (ip), vehicle: Klucel (hydroxypropylcellulose) (HPC)) was 102 % of control, the T/C (dose: 25.0 mg/kg/injection, schedule: Q01DX001 (ip), vehicle: Klucel (hydroxypropylcellulose) (HPC)) was 105 % of control and the T/C (dose: 50.0 mg/kg/injection, schedule: Q01DX001 (ip), vehicle: Klucel (hydroxypropylcellulose) (HPC)) was 106 % of control.

With `C(CCC1CO1)CC1CO1` (stereo not given) the T/C (dose: 100.0 mg/kg/injection, schedule: Q04DX002 (ip), vehicle: Klucel (hydroxypropylcellulose) (HPC)) was 122 % of control.

In the case of `CC(=O)C(Cl)C(=O)c1c(-c2ccccc2)[nH]c2ccccc12` (stereo not given), the T/C [3] is reported as 100 % of control, the T/C [4] is reported as 102 % of control and the T/C [5] is reported as 105 % of control.

In the case of `Cc1cc(C)c(S(=O)(=O)O)c(C)c1Nc1ccc(Nc2c(C)cc(C)c(S(=O)(=O)O)c2C)c2c1C(=O)c1ccccc1C2=O`, the T/C [8] is reported as 92 % of control and the T/C [9] is reported as 91 % of control.

`CCN(CC)CC(C)(C)C(=O)/C=C/c1ccc(/C=C/C(=O)C(C)(C)CN(CC)CC)cc1` was tested, and the T/C (dose: 7.5 mg/kg/injection, schedule: Q01DX005 (ip), vehicle: saline) was 115 % of control and 124 % of control.

`CC[C@@H]1C[C@@H]2CN3CCc4c([nH]c5cc(Cc6ccc(OC)c(OC)c6)c(OC)cc45)C(C(=O)OC)(C2)C13` was tested, and the T/C (dose: 0.5 mg/kg/injection, schedule: Q01DX009 (ip), vehicle: Klucel (hydroxypropylcellulose) (HPC)) was 96 % of control, the T/C (dose: 1.0 mg/kg/injection, schedule: Q01DX009 (ip), vehicle: Klucel (hydroxypropylcellulose) (HPC)) was 107 % of control and the T/C (dose: 2.0 mg/kg/injection, schedule: Q01DX009 (ip), vehicle: Klucel (hydroxypropylcellulose) (HPC)) was 111 % of control. The T/C [1] was 107 % of control and 97 % of control, the T/C [2] was 101 % of control and the T/C (dose: 16.0 mg/kg/injection, schedule: Q01DX009 (ip), vehicle: Klucel (hydroxypropylcellulose) (HPC)) was 98 % of control.

For `O=C1c2ccccc2C(=O)c2c(NCCN3CCOCC3)ccc(NCCN3CCOCC3)c21`, the T/C [8] was 108 % of control, the T/C [9] was 109 % of control and the T/C [10] was 115 % of control. The T/C [11] was 117 % of control.

In the case of `CC(C)N1C(=O)C2C3C=CC(C3)C2C1=O` (stereo not given), the T/C (dose: 25.0 mg/kg/injection, schedule: Q04DX002 (ip), vehicle: saline with Tween-80) is reported as 94 % of control and the T/C (dose: 50.0 mg/kg/injection, schedule: Q04DX002 (ip), vehicle: saline with Tween-80) is reported as 108 % of control.

For `Cn1c([N+](=O)[O-])cnc1CSc1ccc(C#N)cc1`, the T/C (dose: 25.0 mg/kg/injection, schedule: Q01DX005 (ip), vehicle: Klucel (hydroxypropylcellulose) (HPC)) was 105 % of control, the T/C (dose: 50.0 mg/kg/injection, schedule: Q01DX005 (ip), vehicle: Klucel (hydroxypropylcellulose) (HPC)) was 104 % of control and the T/C (dose: 100.0 mg/kg/injection, schedule: Q01DX005 (ip), vehicle: Klucel (hydroxypropylcellulose) (HPC)) was 92 % of control. The T/C (dose: 200.0 mg/kg/injection, schedule: Q01DX005 (ip), vehicle: Klucel (hydroxypropylcellulose) (HPC)) was 114 % of control.

`COC(=O)CC(C)CC(=O)O` (stereo not given) was tested, and the T/C [8] was 100 % of control, the T/C [9] was 107 % of control and the T/C [10] was 100 % of control.

For `CCCCCCCCCCC1OCN2CC(CC)CCC12` (stereo not given), the T/C (dose: 50.0 mg/kg/injection, schedule: Q01DX005 (ip), vehicle: saline) was 100 % of control, the T/C (dose: 100.0 mg/kg/injection, schedule: Q01DX005 (ip), vehicle: saline) was 101 % of control and the T/C (dose: 200.0 mg/kg/injection, schedule: Q01DX005 (ip), vehicle: saline) was 105 % of control.

`O=S(=O)(F)c1ccc(N=C=S)cc1` was tested, and the T/C (dose: 6.25 mg/kg/injection, schedule: Q04DX003 (ip), vehicle: saline with Tween-80) was 100 % of control, the T/C (dose: 12.5 mg/kg/injection, schedule: Q04DX003 (ip), vehicle: saline with Tween-80) was 104 % of control and the T/C (dose: 25.0 mg/kg/injection, schedule: Q04DX003 (ip), vehicle: saline with Tween-80) was 109 % of control.

`CN1c2ccccc2C(C)(C)C2Nc3c(C#N)cnc(N)c3C21` (stereo not given) was tested, and the T/C (dose: 50.0 mg/kg/injection, schedule: Q04DX003 (ip), vehicle: saline with Tween-80) was 96 % of control, the T/C [12] was 105 % of control and the T/C [13] was 109 % of control.

With `O=S1(=O)CC(Sc2ccccc2)C1` the T/C [6] was 102 % of control, the T/C [7] was 96 % of control and the T/C (dose: 400.0 mg/kg/injection, schedule: Q01DX001 (ip), vehicle: saline with Tween-80) was 109 % of control.

With `C=CCn1c(=O)oc2ccc(Cl)cc21` the T/C (dose: 10.0 mg/kg/injection, schedule: Q01DX009 (ip), vehicle: saline with Tween-80) was 104 % of control, the T/C (dose: 20.0 mg/kg/injection, schedule: Q01DX009 (ip), vehicle: saline with Tween-80) was 104 % of control and the T/C (dose: 40.0 mg/kg/injection, schedule: Q01DX009 (ip), vehicle: saline with Tween-80) was 104 % of control.

`Cn1cc(Cl)nc1CO` was tested, and the T/C (dose: 50.0 mg/kg/injection, schedule: Q04DX003 (ip), vehicle: saline sonified) was 95 % of control, the T/C (dose: 100.0 mg/kg/injection, schedule: Q04DX003 (ip), vehicle: saline sonified) was 100 % of control and the T/C (dose: 200.0 mg/kg/injection, schedule: Q04DX003 (ip), vehicle: saline sonified) was 100 % of control.

With `COC(=O)/C(Br)=C/N(Cc1ccccc1)Cc1ccccc1` the T/C [9] was 110 % of control, the T/C [12] was 95 % of control and the T/C [10] was 100 % of control. For the same molecule, the T/C [13] was 95 % of control, the T/C [11] was 110 % of control and the T/C (dose: 400.0 mg/kg/injection, schedule: Q04DX003 (ip), vehicle: saline with Tween-80) was 95 % of control.
